pIC50: −log10 of the molar value. Square brackets hold non-standard residues; d marks the D form. Peptide text beside a SMILES is read from it. Hmp(2R,3S) = CC[C@H](C)[C@@H](O)C(=O)O; Sta = CC(C)C[C@H](N)[C@@H](O)CC(=O)O; dNMeF = CN[C@H](Cc1ccccc1)C(=O)O; NMeQ = CN[C@@H](CCC(N)=O)C(=O)O
Columns and labels:
[1] = target: Disintegrin and metalloproteinase domain-containing protein 9 (Homo sapiens, UniProt Q13443); experiment: Inhibition of ADAM9
[2] = target: Disintegrin and metalloproteinase domain-containing protein 10 (Homo sapiens, UniProt O14672); experiment: Inhibition of ADAM10
Sequence of Disintegrin and metalloproteinase domain-containing protein 10 (O14672 whole entry, the tested form may be a part): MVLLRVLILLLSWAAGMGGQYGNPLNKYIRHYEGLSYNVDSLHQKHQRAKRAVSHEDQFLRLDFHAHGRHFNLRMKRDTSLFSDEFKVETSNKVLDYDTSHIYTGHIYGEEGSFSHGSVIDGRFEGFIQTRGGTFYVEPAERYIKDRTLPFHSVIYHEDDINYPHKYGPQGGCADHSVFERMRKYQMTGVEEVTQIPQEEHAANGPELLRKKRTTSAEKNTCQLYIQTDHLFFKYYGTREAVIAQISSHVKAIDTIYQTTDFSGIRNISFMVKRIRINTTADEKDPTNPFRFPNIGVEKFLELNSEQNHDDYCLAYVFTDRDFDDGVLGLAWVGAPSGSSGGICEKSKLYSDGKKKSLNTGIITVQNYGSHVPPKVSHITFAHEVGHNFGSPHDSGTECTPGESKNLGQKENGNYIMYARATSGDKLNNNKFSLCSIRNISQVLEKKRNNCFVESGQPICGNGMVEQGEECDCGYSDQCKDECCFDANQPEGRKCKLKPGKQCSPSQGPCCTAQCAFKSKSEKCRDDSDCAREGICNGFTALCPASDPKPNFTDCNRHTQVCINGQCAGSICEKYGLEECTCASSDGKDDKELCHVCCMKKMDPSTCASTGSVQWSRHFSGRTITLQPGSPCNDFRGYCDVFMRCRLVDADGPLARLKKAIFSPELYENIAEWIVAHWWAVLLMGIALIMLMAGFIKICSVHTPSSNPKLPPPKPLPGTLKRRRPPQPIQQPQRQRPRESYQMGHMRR

[3] = target: Disintegrin and metalloproteinase domain-containing protein 17 (Homo sapiens, UniProt P78536)
Sequence of Disintegrin and metalloproteinase domain-containing protein 17 (P78536 whole entry, the tested form may be a part): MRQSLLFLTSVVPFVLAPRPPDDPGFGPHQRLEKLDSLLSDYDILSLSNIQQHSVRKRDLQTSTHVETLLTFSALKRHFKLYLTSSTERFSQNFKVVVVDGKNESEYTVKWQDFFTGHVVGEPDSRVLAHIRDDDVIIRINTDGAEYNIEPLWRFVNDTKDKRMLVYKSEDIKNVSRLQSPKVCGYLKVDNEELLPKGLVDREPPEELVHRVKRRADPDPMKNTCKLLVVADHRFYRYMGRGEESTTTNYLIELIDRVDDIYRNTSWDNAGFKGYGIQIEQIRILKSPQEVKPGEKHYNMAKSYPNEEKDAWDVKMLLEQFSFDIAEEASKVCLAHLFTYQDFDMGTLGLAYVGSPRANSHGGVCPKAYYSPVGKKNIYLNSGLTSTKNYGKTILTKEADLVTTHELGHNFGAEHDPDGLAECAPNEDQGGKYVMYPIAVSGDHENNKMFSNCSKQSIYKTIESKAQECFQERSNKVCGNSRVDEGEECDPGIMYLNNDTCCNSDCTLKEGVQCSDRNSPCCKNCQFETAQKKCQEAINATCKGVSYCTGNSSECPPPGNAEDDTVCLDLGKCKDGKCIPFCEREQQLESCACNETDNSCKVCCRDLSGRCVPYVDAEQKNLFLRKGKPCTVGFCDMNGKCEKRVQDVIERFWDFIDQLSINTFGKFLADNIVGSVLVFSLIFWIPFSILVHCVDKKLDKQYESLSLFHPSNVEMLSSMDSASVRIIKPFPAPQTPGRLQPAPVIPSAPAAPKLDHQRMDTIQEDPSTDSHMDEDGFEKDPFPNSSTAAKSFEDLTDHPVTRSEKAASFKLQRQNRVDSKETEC

Sequence of Disintegrin and metalloproteinase domain-containing protein 9 (Q13443 whole entry, the tested form may be a part): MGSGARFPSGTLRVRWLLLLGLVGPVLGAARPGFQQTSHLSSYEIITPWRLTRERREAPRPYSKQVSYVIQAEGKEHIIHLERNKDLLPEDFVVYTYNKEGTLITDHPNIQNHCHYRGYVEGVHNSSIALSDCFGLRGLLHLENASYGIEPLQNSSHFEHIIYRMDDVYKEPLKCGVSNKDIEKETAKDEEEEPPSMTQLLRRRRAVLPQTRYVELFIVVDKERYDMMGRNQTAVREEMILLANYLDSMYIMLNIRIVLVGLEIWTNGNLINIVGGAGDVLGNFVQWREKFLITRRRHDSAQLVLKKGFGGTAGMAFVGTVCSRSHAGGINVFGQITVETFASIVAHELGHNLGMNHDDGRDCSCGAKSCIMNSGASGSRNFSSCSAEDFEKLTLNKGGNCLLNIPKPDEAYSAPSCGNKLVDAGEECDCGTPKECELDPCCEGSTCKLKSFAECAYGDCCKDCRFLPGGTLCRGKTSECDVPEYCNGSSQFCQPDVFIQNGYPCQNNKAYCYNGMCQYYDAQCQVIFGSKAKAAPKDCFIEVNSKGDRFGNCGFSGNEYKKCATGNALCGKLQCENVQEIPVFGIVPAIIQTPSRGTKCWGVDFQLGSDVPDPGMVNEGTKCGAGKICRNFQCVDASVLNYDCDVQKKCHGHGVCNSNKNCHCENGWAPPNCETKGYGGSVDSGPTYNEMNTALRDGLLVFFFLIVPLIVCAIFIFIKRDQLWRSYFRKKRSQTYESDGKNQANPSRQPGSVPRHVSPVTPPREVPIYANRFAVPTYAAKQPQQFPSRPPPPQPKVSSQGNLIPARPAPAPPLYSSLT

pIC50 [3] | Compound | pIC50 [1] | pIC50 [2]
 | CC[C@H](C)[C@H](NC(=O)C[C@H](O)[C@H](CC(C)C)NC(=O)[C@H](CCC(N)=O)N(C)C(=O)[C@H](CC(C)C)NC(=O)[C@H](O)[C@@H](C)CC)C(=O)NCC(=O)N(C)[C@H](Cc1ccccc1)C(=O)N1CCC[C@H]1C(=O)OC [GRASSYSTATIN C] ({Hmp(2R,3S)}-L[NMeQ][Sta]IG[dNMeF]P-OMe) | < 4.00 | < 4.00
7.88 | CNC(=O)[C@H](Cc1c[nH]c2ccccc12)NC(=O)[C@@H](CC(=O)NO)CC(C)C [ILOMASTAT] | 7.25 | 6.58

Source: ChEMBL document CHEMBL1156023, “Grassystatins A-C from marine cyanobacteria, potent cathepsin E inhibitors that reduce antigen presentation” (J Med Chem, 2009)
